Legend:
[1] = tested on: rabbit serum obtained by immunizing a rabbit with the SARS-CoV strain Frankfurt 1; type: binding; set-up: Binding of a rabbit serum to linear peptides / Binding of a rabbit serum to looped peptides / Rabbit serum linear peptides / Rabbit serum looped peptides / Binding of a rabbit serum to linear peptides of protein N of SARS-CoV Urbani (Rabbit serum linear peptides) / Binding of a rabbit serum to looped/cyclic peptides of protein N of SARS-CoV Urbani (Rabbit serum looped peptides): unit not given here
[2] = tested on: control sera (pooled serum of ten healthy LUMC hospital workers; commercial negative donor pooled serum from the Dutch bloodbank); type: binding, human; set-up: Binding of Control serum LUMC to linear peptides / Binding of Control serum Blood-bank to linear peptides / Binding of Control serum LUMC to looped peptides / Binding of Control Serum Blood-Bank to Looped peptides / Binding of Control serum LUMC to linear peptides of the protein M of SARS-CoV Urbani / Binding of Control serum Blood-bank to linear peptides of the protein M of SARS-CoV Urbani / Binding of Control serum LUMC to looped peptides of the protein M of SARS-CoV Urbani / Binding of Control Serum Blood-Bank to Looped peptides of the protein M of SARS-CoV Urbani: unit not given here
[3] = tested on: antibodies in sera from SARS patients (sera 1a, 1b, 2, 6, 37, 62, London, SARS-yellow, SARS-green); type: binding, human; set-up: Binding of serum 6 to linear peptides of protein X1 of SARS-CoV Urbani / Binding of serum 37 to linear peptides of protein X1 of SARS-CoV Urbani / Binding of serum 6 to looped/cyclic peptide (PEPSCAN-ELISA) / Binding of serum 37 to looped/cyclic peptide (PEPSCAN-ELISA) / Binding of serum 37 to looped/cyclic peptides of protein X1 of SARS-CoV Urbani / Binding of serum 6 to linear peptides of protein X2 / Binding of serum 37 to linear peptides of protein X2 / Binding of serum 37 to looped/cyclic peptides of protein X2 of SARS-CoV Urbani / Binding of serum 6 to linear peptides of protein M of SARS-CoV Urbani / Binding of serum 37 to linear peptides of protein M of SARS-CoV Urbani / Binding of serum 6 to looped/cyclic peptides of protein M of SARS-CoV Urbani / Binding of serum 37 to looped/cyclic peptides of protein M of SARS-CoV Urbani / Binding of serum 6 to linear peptides of protein X3 of SARS-CoV Urbani / Binding of serum 37 to linear peptides of protein X3 of SARS-CoV Urbani / Binding of serum 37 to looped/cyclic peptides of protein X3 of SARS-CoV Urbani / Binding of serum 6 to linear peptides of protein X4 of SARS-CoV Urbani / Binding of serum 37 to linear peptides of protein X4 of SARS-CoV Urbani / Binding of serum 37 to looped/cyclic peptides of protein X4 of SARS-CoV Urbani / Binding of serum 6 to linear peptides of protein X5 of SARS-CoV Urbani / Binding of serum 37 to linear peptides of protein X5 of SARS-CoV Urbani / Binding of serum 37 to looped/cyclic peptides of protein X5 of SARS-CoV Urbani / Binding of serum 6 to linear peptides of protein N of SARS-CoV Urbani / Binding of serum 37 to linear peptides of protein N of SARS-CoV Urbani / Binding of serum 6 to linear peptide (PEPSCAN-ELISA) / Binding of serum 1a to looped/cyclic peptides of protein N of SARS-CoV Urbani / Binding of serum 1b to looped/cyclic peptides of protein N of SARS-CoV Urbani / Binding of serum 2 to looped/cyclic peptides of protein N of SARS-CoV Urbani / Binding of serum 6 to looped/cyclic peptides of protein N of SARS-CoV Urbani / Binding of serum 37 to looped/cyclic peptides of protein N of SARS-CoV Urbani / Binding of serum 62 to looped/cyclic peptides of protein N of SARS-CoV Urbani / Binding of serum London to looped/cyclic peptides of protein N of SARS-CoV Urbani / Binding of serum SARS-green to looped/cyclic peptides of protein N of SARS-CoV Urbani: unit not given here

YFLQCINACRIIMRC
0.5: Binding of serum 2 to linear peptides of protein X1 of SARS-CoV Urbani [3] | Binding of serum 6 to linear peptides of protein X1 of SARS-CoV Urbani [3] | Binding of serum 37 to looped/cyclic peptide (PEPSCAN-ELISA) [3]
0.4: Binding of serum 1b to looped/cyclic peptide (PEPSCAN-ELISA) [3] | Binding of serum 2 to looped/cyclic peptide (PEPSCAN-ELISA) [3]
0.6: Binding of Control Serum Blood-Bank to Looped peptides [2] | Binding of Control serum LUMC to looped peptides [2] | Binding of serum 1a to looped/cyclic peptide (PEPSCAN-ELISA) [3] | Binding of serum 1b to linear peptides of protein X1 of SARS-CoV Urbani [3] | Binding of serum 37 to linear peptides of protein X1 of SARS-CoV Urbani [3] | Binding of serum 62 to linear peptides of protein X1 of SARS-CoV Urbani [3] | Binding of serum 62 to looped/cyclic peptide (PEPSCAN-ELISA) [3] | Binding of serum SARS-yellow to looped/cyclic peptide (PEPSCAN-ELISA) [3]
0.8: Binding of a rabbit serum to looped peptides [1] | Binding of Control serum Blood-bank to linear peptides [2]
0.1: Binding of a rabbit serum to linear peptides [1]
1.6: Binding of serum 6 to looped/cyclic peptide (PEPSCAN-ELISA) [3] | Binding of serum London to looped/cyclic peptide (PEPSCAN-ELISA) [3]
0.7: Binding of Control serum LUMC to linear peptides [2] | Binding of serum 1a to linear peptides of protein X1 of SARS-CoV Urbani [3]
0.3: Binding of serum SARS-green to linear peptides of protein X1 of SARS-CoV Urbani [3] | Binding of serum SARS-yellow to linear peptides of protein X1 of SARS-CoV Urbani [3]
0.2: Binding of serum London to linear peptides of protein X1 of SARS-CoV Urbani [3] | Binding of serum SARS-green to looped/cyclic peptide (PEPSCAN-ELISA) [3]

YFTEVYYQLESTQIT
0.3: Binding of serum 2 to looped/cyclic peptides of protein X1 of SARS-CoV Urbani [3] | Binding of serum London to linear peptides of protein X1 of SARS-CoV Urbani [3] | Binding of serum SARS-green to linear peptides of protein X1 of SARS-CoV Urbani [3] | Binding of serum SARS-yellow to linear peptides of protein X1 of SARS-CoV Urbani [3] | Binding of serum SARS-yellow to looped/cyclic peptides of protein X1 of SARS-CoV Urbani [3]
0.1: Binding of a rabbit serum to linear peptides [1]
0.2: Binding of serum 6 to looped/cyclic peptides of protein X1 of SARS-CoV Urbani [3] | Binding of serum London to looped/cyclic peptides of protein X1 of SARS-CoV Urbani [3] | Binding of serum SARS-green to looped/cyclic peptides of protein X1 of SARS-CoV Urbani [3]
0.4: Binding of a rabbit serum to looped peptides [1] | Binding of Control Serum Blood-Bank to Looped peptides [2] | Binding of Control serum Blood-bank to linear peptides [2] | Binding of Control serum LUMC to linear peptides [2] | Binding of serum 2 to linear peptides of protein X1 of SARS-CoV Urbani [3] | Binding of serum 6 to linear peptides of protein X1 of SARS-CoV Urbani [3] | Binding of serum 37 to looped/cyclic peptides of protein X1 of SARS-CoV Urbani [3] | Binding of serum 62 to looped/cyclic peptides of protein X1 of SARS-CoV Urbani [3]
0.7: Binding of serum 1a to linear peptides of protein X1 of SARS-CoV Urbani [3]
0.5: Binding of Control serum LUMC to looped peptides [2] | Binding of serum 1a to looped/cyclic peptides of protein X1 of SARS-CoV Urbani [3] | Binding of serum 1b to looped/cyclic peptides of protein X1 of SARS-CoV Urbani [3]
0.6: Binding of serum 1b to linear peptides of protein X1 of SARS-CoV Urbani [3] | Binding of serum 37 to linear peptides of protein X1 of SARS-CoV Urbani [3] | Binding of serum 62 to linear peptides of protein X1 of SARS-CoV Urbani [3]
